From patent US20230053649A1 (Cedilla Therapeutics, Inc., priority 2021, published 2023)

Legend:
[1] = test system: mesothelioma cell line NCI-H226; assay: 72H TEAD Proliferation Assay (Cell Titer-Glo 2.0); assay type: cell-based; details: Homo sapiens, CTG 2.0, cell line not given in Table 1 (NCI-H226 TEAD-responsive, NCI-H28 non-responsive counter-screen)
Experimental: 72H TEAD Proliferation Assay.
The effect of TEAD inhibition on cell proliferation was assayed using Cell Titer Glo (CTG) 2.0 to measure response in mesothelioma cell lines NCI-H226 (ATCC, #CRL-5826) and NCI-H28 (ATCC, #CRL-5820).
The 72H TEAD Proliferation assay utilizes Cell Titer-Glo 2.0 (Promega, #G9243) to measure the proliferation of cells in the presence or absence of compound. Cell Titer-Glo 2.0 determines the amount of viable cells by quantifying ATP (an indication of metabolically active cells). It utilizes the conversion of Luciferin to Oxyluciferin and a luminescent signal with the use of ATP to report the quantity of viable cells in culture. Within cells that are continually growing, ATP is being synthesized to meet their metabolic demands, meanwhile the opposite is true for cells that are dying or slowing down their proliferation and either no longer using ATP or are using less, respectively. The NF2-deficient NCI-H226 has been genetically validated as a cell line that is sensitive to TEAD inhibition. The NF2-wild type NCI-H28 has been genetically validated as a cell line that is not sensitive to TEAD inhibition and grows independently of TEAD activity.
Compounds were screened against the responsive NCI-H226 cell line to assess the compounds' ability to inhibit TEAD and cell growth. Compounds were also screened against the non-responsive NCI-H28 cell line to ascertain whether the inhibition of cell growth was due to inhibition of the target TEAD or whether the inhibition was due to off-target cytotoxicity.
Both NCI-H226 and NCI-H28 cells were grown at 37° C. with 5% CO2 using Growth Medium 1.
Anti-proliferative effect of compounds that inhibits TEAD activity measured by CTG
1) Assay ready plates (ARPs) were prepared by Echo acoustic liquid handler. For each compound, duplicate of 10-point half-log dilution series were dispensed in a 384-well microplate (Corning 3571).
3) Before use, ARPs were allowed to warm up to room temperature for 30 min.
4) ARPs were spun for 5 minutes at 1500RPM before removing the plate seals.
5) NCI-H226 or NCI-H28 cells were harvested from culture in Assay Medium 1 and the multidrop Combi reagent dispenser was used to seed cells at 500 cells per 50ul in each well of the ARPs and one Corning 3571 plate without compounds for Time 0 (TO) readout.
6) The TO plate was incubated for 2 hours at 37° C. with 5% CO2 to allow cells to settle, then the CTG Assay was performed.
7) All ARPs were incubated for 72 hours at 37° C. with 5% CO2, then the CTG Assay was performed for Time 72H (T72) readout.
8) CTG Assay: Bravo liquid handler (Agilent) was used to add 25ul of CTG 2.0 to all columns of the plate except for Column 24, which was used to subtract out the background. After CTG addition, plates were placed on shaker at 800RPM for 15 minutes at room temperature and kept in the dark. Luminescence was measured using EnVision multilabel plate reader with ultra-sensitive detection module.
9) Data Analysis: First background luminescence (no CTG wells) was subtracted from luminescence reading of all wells, then TO luminescence was subtracted from T72 luminescence. To compare anti-proliferative effect of compounds, GI50 was obtained by fitting dose response curves with nonlinear regression curve fit.

[2] = molecular target: TEAD1 protein (YAP Binding Domain) (Homo sapiens, UniProt P28347); assay: biochemical
Chain of TEAD1 protein (YAP Binding Domain) (P28347 167-426 limits assumed): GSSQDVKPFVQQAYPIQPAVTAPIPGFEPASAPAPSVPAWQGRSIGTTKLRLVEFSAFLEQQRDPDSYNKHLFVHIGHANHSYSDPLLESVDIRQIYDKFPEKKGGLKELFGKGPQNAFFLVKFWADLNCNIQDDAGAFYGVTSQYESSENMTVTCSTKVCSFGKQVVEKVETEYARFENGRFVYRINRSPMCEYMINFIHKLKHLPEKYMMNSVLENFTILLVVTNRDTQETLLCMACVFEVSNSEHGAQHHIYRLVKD
Experimental: Compound Displacement Assay.
A TEAD1 lipid pocket displacement assay was carried out according to the following protocol. Purified His-tagged TEAD1 protein (YAP Binding Domain) was pre-mixed with a Cy5-probe (Cy5-conjugated to a small molecule that binds in the TEAD1 lipid pocket) and Terbium-labeled anti-His antibody (Cisbio Cat 61HI2TLB). The binding of the Cy5-probe to anti-His-Tb/His-tag TEAD1 complex yielded a TR-FRET signal. […] After 60 minutes incubation at room temperature of compounds with the His-TEAD1/anti-His-Tb/Cy5-probe complex, the plate was read on a plate reader (BMG ClarioStar Cat 430-1300) using TR-FRET mode with wavelengths of 665 nm/620 nm. The potency of compounds as TEAD1 lipid pocket binders was determined by IC50 value generated using a non-linear 4 parameter curve fit.

## C[C@H](CO)NC(=O)c1cnc2c(N3CCC4(CC3)CC4)cc(OC(F)(F)F)cc2c1 [Compound I-24, (R)-N-(1-hydroxypropan-2-yl)-8-(6-azaspiro[2.5]octan-6-yl)-6-(trifluoromethoxy)quinoline-3-carboxamide]
[1]
  GI50: > 5000 nM
[2]
  IC50: > 500 nM

## COc1cc(-c2ccc(C(C)(C)C)cc2)c2ncc(C(=O)N[C@H](C)CO)cc2c1 [I′-33, (R)-8-(4-(tert-butyl)phenyl)-N-(1-hydroxypropan-2-yl)-6-methoxyquinoline-3-carboxamide]
[1]
  GI50: 500 to 1000 nM
[2]
  IC50: 150 to 300 nM

## CC[C@H](CO)NC(=O)c1ccc2c(N3CCC(C(F)(F)F)CC3)nc(OC)cc2c1 [Compound I-65, (R)-N-(1-hydroxybutan-2-yl)-3-methoxy-1-(4-(trifluoromethyl)piperidin-1-yl)isoquinoline-6-carboxamide]
[1]
  GI50: ≤ 500 nM
[2]
  IC50: < 150 nM

## COc1cc(N2CCN(CC(F)(F)F)CC2)c2ncc(C(=O)N[C@H](C)CO)cc2c1 [Compound I-8, (R)-N-(1-hydroxypropan-2-yl)-6-methoxy-8-(4-(2,2,2-trifluoroethyl)piperazin-1-yl)quinoline-3-carboxamide]
[1]
  GI50: > 5000 nM
[2]
  IC50: > 500 nM

## COc1cc(-c2ccc(OC(F)F)cc2)c2ncc(C(=O)N[C@H](C)CO)cc2c1 [Compound I-17, (R)-8-(4-(difluoromethoxy)phenyl)-N-(1-hydroxypropan-2-yl)-6-methoxyquinoline-3-carboxamide]
[1]
  GI50: ≤ 500 nM
[2]
  IC50: < 150 nM

## C[C@H](CO)NC(=O)c1cnc2c(N3CCC(C(F)(F)F)CC3)cccc2c1 [Compound I-60, (R)-N-(1-hydroxypropan-2-yl)-8-(4-(trifluoromethyl)piperidin-1-yl)quinoline-3-carboxamide]
[1]
  GI50: 500 to 1000 nM
[2]
  IC50: 150 to 300 nM

## COC[C@H](C)NC(=O)c1cnc2c(N3CCC(C(F)(F)F)CC3)cc(OC3CC3)cc2c1 [Compound I-26, (S)-6-cyclopropoxy-N-(1-methoxypropan-2-yl)-8-(4-(trifluoromethyl)piperidin-1-yl)quinoline-3-carboxamide]
[1]
  GI50: 500 to 1000 nM
[2]
  IC50: 300 to 500 nM

## CCOc1cc2cc(C(=O)N[C@H](C)CO)ccc2c(N2CCC(C(F)(F)F)CC2)n1 [Compound I-62, (R)-3-ethoxy-N-(1-hydroxypropan-2-yl)-1-(4-(trifluoromethyl)piperidin-1-yl)isoquinoline-6-carboxamide]
[1]
  GI50: ≤ 500 nM
[2]
  IC50: < 150 nM

## C[C@H](NC(=O)c1cnc2c(-c3ccc(C#N)cc3)cccc2c1)c1ccccn1 [I′-32, (S)-8-(4-cyanophenyl)-N-(1-(pyridin-2-yl)ethyl)quinoline-3-carboxamide]
[1]
  GI50: 1000 to 5000 nM
[2]
  IC50: 300 to 500 nM

## C[C@H](CO)NC(=O)c1ccc2c(-c3ccc(C(F)(F)F)cc3)[nH]c(=O)cc2c1 [I″-56]
[1]
  GI50: > 5000 nM
[2]
  IC50: > 500 nM

## C[C@H](NC(=O)c1cnc2c(C#CC(C)(C)C)cccc2c1)c1ccccn1 [Compound 31, (S)-8-(3,3-dimethylbut-1-yn-1-yl)-N-(1-(pyridin-2-yl)ethyl)quinoline-3-carboxamide]
[1]
  GI50: 1000 to 5000 nM
[2]
  IC50: > 500 nM

## COc1cc(N2CCC(C(F)(F)F)CC2)c2ncc(C(=O)N[C@@H](CO)C(C)C)cc2c1 [Compound I-35, (R)-N-(1-hydroxy-3-methylbutan-2-yl)-6-methoxy-8-(4-(trifluoromethyl)piperidin-1-yl) quinolone-3-carboxamide]
[1]
  GI50: 500 to 1000 nM
[2]
  IC50: 300 to 500 nM

## C[C@H](CO)NC(=O)c1ccc2c(N3CCC(C(F)(F)F)CC3)nc(C(F)(F)F)cc2c1 [Compound I-52, (R)-N-(1-hydroxypropan-2-yl)-3-(trifluoromethyl)-1-(4-(trifluoromethyl)piperidin-1-yl)isoquinoline-6-carboxamide]
[1]
  GI50: ≤ 500 nM
[2]
  IC50: < 150 nM

## CC(NC(=O)c1cnc2c(OCC3CCC(F)(F)CC3)cccc2c1)c1ccccn1 (stereo not shown) [Compound I-46, 8-((4,4-Difluorocyclohexyl)methoxy)-N-(1-(pyridin-2-yl)ethyl)quinoline-3-carboxamide]
[1]
  GI50: 1000 to 5000 nM
[2]
  IC50: 300 to 500 nM

## COc1cc(-c2ccc(OC3CC3)cc2)c2ncc(C(=O)N[C@H](C)CO)cc2c1 [Compound I-20, (R)-8-(4-cyclopropoxyphenyl)-N-(1-hydroxypropan-2-yl)-6-methoxyquinoline-3-carboxamide]
[1]
  GI50: ≤ 500 nM
[2]
  IC50: < 150 nM

## COc1cc2cc(C(=O)N[C@@H](C)c3ccccn3)ccc2c(-c2ccc(C(F)(F)F)cc2)n1 [I″-55, (S)-3-methoxy-N-(1-(pyridin-2-yl)ethyl)-1-(4-(trifluoromethyl)phenyl)isoquinoline-6-carboxamide]
[1]
  GI50: ≤ 500 nM
[2]
  IC50: < 150 nM

## COC[C@H](C)NC(=O)c1cnc2c(N3CCC(C(F)(F)F)CC3)cccc2c1 [Compound I-61, (S)-N-(1-methoxypropan-2-yl)-8-(4-(trifluoromethyl)piperidin-1-yl)quinoline-3-carboxamide]
[1]
  GI50: 500 to 1000 nM
[2]
  IC50: 150 to 300 nM

## COc1cc(N2CCC3(CC2)CC3)c2ncc(C(=O)N[C@H](C)CO)cc2c1 [Compound I-3, (R)-N-(1-hydroxypropan-2-yl)-6-methoxy-8-(6-azaspiro[2.5]octan-6-yl)quinoline-3-carboxamide]
[1]
  GI50: 500 to 1000 nM
[2]
  IC50: 150 to 300 nM

## COc1cc(N2CCC(C(F)(F)F)CC2)c2ncc(C(=O)N[C@@H](CO)C3CC3)cc2c1 [Compound I-36]
[1]
  GI50: 500 to 1000 nM
[2]
  IC50: 150 to 300 nM

## C[C@H](CO)NC(=O)c1ccc2c(N3CCC(C(F)(F)F)CC3)nccc2c1 [Compound I-63, (R)-N-(1-hydroxypropan-2-yl)-1-(4-(trifluoromethyl)piperidin-1-yl)isoquinoline-6-carboxamide]
[1]
  GI50: 1000 to 5000 nM
[2]
  IC50: 300 to 500 nM

## COC[C@H](C)NC(=O)c1ccc2c(-c3ccc(C(F)(F)F)cc3)nc(OC)cc2c1 [I″-54, (S)-3-Methoxy-N-(1-methoxypropan-2-yl)-1-(4-(trifluoromethyl)phenyl)isoquinoline-6-carboxamide]
[1]
  GI50: ≤ 500 nM
[2]
  IC50: < 150 nM

## COC[C@H](C)NC(=O)c1cnc2c(N3CCC(C(F)(F)F)CC3)cc(OC(F)(F)F)cc2c1 [Compound I-23, (S)-N-(1-methoxypropan-2-yl)-6-(trifluoromethoxy)-8-(4-(trifluoromethyl)piperidin-1-yl)quinoline-3-carboxamide]
[1]
  GI50: 1000 to 5000 nM
[2]
  IC50: 300 to 500 nM

## COc1cc(-c2ccc(C(C)(C)O)cc2)c2ncc(C(=O)N[C@H](C)CO)cc2c1 [I′-34, (R)-N-(1-hydroxypropan-2-yl)-8-(4-(2-hydroxypropan-2-yl)phenyl)-6-methoxyquinoline-3-carboxamide]
[1]
  GI50: > 5000 nM
[2]
  IC50: 300 to 500 nM

## C#Cc1cccc2cc(C(=O)N[C@@H](C)c3ccccn3)cnc12 [Compound 30, (S)-8-ethynyl-N-(1-(pyridin-2-yl)ethyl)quinoline-3-carboxamide]
[1]
  GI50: > 5000 nM
[2]
  IC50: > 500 nM

## COC[C@H](C)NC(=O)c1cnc2c(N3CCC(C(F)(F)F)CC3)cc(OC(F)F)cc2c1 [Compound I-28, (S)-6-(difluoromethoxy)-N-(1-methoxypropan-2-yl)-8-(4-(trifluoromethyl)piperidin-1-yl)quinoline-3-carboxamide]
[1]
  GI50: 500 to 1000 nM
[2]
  IC50: 150 to 300 nM

## CC(NC(=O)c1ccc2c(OCC3CCC(F)(F)CC3)cccc2c1)c1ccccn1 (stereo not shown) [Compound I-45, 5-((4,4-difluorocyclohexyl)methoxy)-N-(1-(pyridin-2-yl)ethyl)-2-naphthamide]
[1]
  GI50: 1000 to 5000 nM
[2]
  IC50: < 150 nM
